Experimental data as given in the NIST ThermoML archive (doi:10.1021/je100581m).
Where “and” joins values, the source holds several entries; their conditions need not be identical. Equal entries are not always repeated.

How the values were obtained:
[1] = xn = mol fraction of the nth substance listed; settings: Liquid, Vibrating tube method, x1 = 1
[2] = Liquid, Vibrating tube method

CCCO [propan-1-ol] + C=CC(C)(O)CCC=C(C)C
mass density [kg/m3], [1]
Settings | 100 kPa | 5000 kPa | 10000 kPa | 15000 kPa | 20000 kPa
283.15 K | 810.9 | 814.7 | 818.1 | 821.7 | 824.9
298.15 K | 799 | 803 | 806.9 | 810.6 | 814.1
313.15 K | 786.8 | 791.2 | 795.3 | 799.3 | 803.1
328.15 K | 774.5 | 779.1 | 783.7 | 787.8 | 791.9

C=CC(C)(O)CCC=C(C)C (configuration not stated) [3,7-dimethyl-1,6-octadien-3-ol]
mass density, [2]
Settings | 283.15 K | 283.18 K | 298.15 K | 313.15 K | 328.15 K | 328.18 K
100 kPa | 869.2 kg/m3 and 869.5 kg/m3 | – | 856.9 kg/m3 and 857.3 kg/m3 | 844.1 kg/m3 and 844.5 kg/m3 | 831.3 kg/m3 and 831.7 kg/m3 | –
5000 kPa | 872.3 kg/m3 and 872.6 kg/m3 | – | 860.1 kg/m3 and 860.6 kg/m3 | 847.8 kg/m3 and 848.2 kg/m3 | 835.2 kg/m3 and 835.6 kg/m3 | –
10000 kPa | 875.2 kg/m3 and 875.7 kg/m3 | – | 863.5 kg/m3 and 863.9 kg/m3 | 851.3 kg/m3 and 851.6 kg/m3 | 839.1 kg/m3 and 839.5 kg/m3 | 839.5 kg/m3
15000 kPa | 878.2 kg/m3 and 878.7 kg/m3 | 878.7 kg/m3 | 866.6 kg/m3 and 867 kg/m3 | 854.8 kg/m3 and 855 kg/m3 | 842.7 kg/m3 and 843.1 kg/m3 | –
20000 kPa | 881 kg/m3 and 881.5 kg/m3 | – | 869.6 kg/m3 and 870 kg/m3 | 858.1 kg/m3 and 858.4 kg/m3 | 846.3 kg/m3 and 846.7 kg/m3 | –

CCCO [propan-1-ol]
mass density [kg/m3], [2]
Settings | 100 kPa | 5000 kPa | 10000 kPa | 15000 kPa | 20000 kPa
283.15 K | 810.9 | 814.7 | 818.1 | 821.7 | 824.9
298.15 K | 799 | 803 | 806.9 | 810.6 | 814.1
313.15 K | 786.8 | 791.2 | 795.3 | 799.3 | 803.1
328.15 K | 774.5 | 779.1 | 783.7 | 787.8 | 791.9

CC(C)O [propan-2-ol] + C=CC(C)(O)CCC=C(C)C
mass density [kg/m3], [1]
Settings | 283.15 K | 283.18 K | 298.15 K | 313.15 K | 328.15 K | 328.18 K
100 kPa | 793.7 | – | 781.2 | 768.1 | 754.4 | –
5000 kPa | 797.5 | – | 785.5 | 773 | 759.6 | –
10000 kPa | 801.3 | – | 789.7 | 777.5 | – | 764.8
15000 kPa | – | 805.2 | 793.8 | 781.9 | 769.5 | –
20000 kPa | 808.9 | – | 797.6 | 786.1 | 774 | –

CC(C)O [propan-2-ol]
mass density [kg/m3], [2]
Settings | 283.15 K | 283.18 K | 298.15 K | 313.15 K | 328.15 K | 328.18 K
100 kPa | 793.7 | – | 781.2 | 768.1 | 754.4 | –
5000 kPa | 797.5 | – | 785.5 | 773 | 759.6 | –
10000 kPa | 801.3 | – | 789.7 | 777.5 | – | 764.8
15000 kPa | – | 805.2 | 793.8 | 781.9 | 769.5 | –
20000 kPa | 808.9 | – | 797.6 | 786.1 | 774 | –

CCO [ethanol]
mass density [kg/m3], [2]
Settings | 100 kPa | 5000 kPa | 10000 kPa | 15000 kPa | 20000 kPa
283.15 K | 797.7 | 801.8 | 805.6 | 809.6 | 813.1
298.15 K | 784.9 | 789.3 | 793.6 | 797.7 | 801.6
313.15 K | 771.9 | 776.8 | 781.3 | 785.7 | 789.9
328.15 K | 758.6 | 763.8 | 768.9 | 773.6 | 778.1

CCO [ethanol] + C=CC(C)(O)CCC=C(C)C
mass density [kg/m3], [1]
Settings | 100 kPa | 5000 kPa | 10000 kPa | 15000 kPa | 20000 kPa
283.15 K | 797.7 | 801.8 | 805.6 | 809.6 | 813.1
298.15 K | 784.9 | 789.3 | 793.6 | 797.7 | 801.6
313.15 K | 771.9 | 776.8 | 781.3 | 785.7 | 789.9
328.15 K | 758.6 | 763.8 | 768.9 | 773.6 | 778.1
